Legend:
Assay type in all cases: cell-based
[1] = biological target: T1, EGFR exon 20 FQEA Ins A763_V764 (Ba/F3 cells) (Homo sapiens, UniProt P00533, INS763FQEA); assay: Inhibitor activity on EGFR-dependent cell growth (CellTiter-Glo, 72 h), Ba/F3 EGFR exon 20 FQEA Ins; conditions: read-out: BaF3 FQEA IC50
T1 construct: expressed in transfected cells; host or cells: Ba/F3 (murine pro-B cells), retroviral transduction, puromycin selection, IL3-independent pool
Procedure, shortened: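 Ba/F3 cells engineered with each EGFR variant were plated (400, 600 or 800 per well for L858R, L858R/C797S, and exon 19del/FQEA). They were exposed for 72 hours to compound serially diluted from a 10 mM DMSO stock. Remaining viable cells were quantified by CellTiter-Glo, and IC50 was curve-fitted.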

[2] = biological target: T2, EGFR WT (Ba/F3 cells) (Homo sapiens, UniProt P00533); assay: Inhibitor activity on EGFR-dependent cell growth (CellTiter-Glo, 72 h), Ba/F3 EGFR WT; conditions: read-out: BaF3 WT IC50
T2 construct: expressed in transfected cells; host or cells: Ba/F3 (murine pro-B cells), retroviral transduction, puromycin selection, maintained with EGF
Procedure, shortened: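 This growth assay used Ba/F3 cells that depend on wild-type EGFR and are kept in EGF without IL3. Compounds were made up as 10 mM DMSO stocks and diluted 3-fold over 10 points. 120 nL went onto 600 cells/well. After 72 hours, 40 μL CellTiter-Glo was added and luminescence read on EnVision after 30 min.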

[3] = biological target: T3, EGFR exon 20 ASV Ins V769_D770 (Ba/F3 cells) (Homo sapiens, UniProt P00533, INS769ASV); assay: Inhibitor activity on EGFR-dependent cell growth (CellTiter-Glo, 72 h), Ba/F3 EGFR exon 20 ASV Ins; conditions: read-out: BaF3 ASV IC50
T3 construct: expressed in transfected cells; host or cells: Ba/F3 (murine pro-B cells), retroviral transduction, puromycin selection, IL3-independent pool
Procedure, shortened: (§1)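 IC50s derive from a sigmoidal dose–response fit of CellTiter-Glo signal. The signal was normalised between […]-treated cells and cell-free medium. Ba/F3 mutant-EGFR cells, seeded at 400–800/well depending on the line, had 72 h of exposure to a 10-point, 3-fold compound series.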

[4] = biological target: T3, EGFR exon 20 ASV Ins V769_D770 (Ba/F3 cells); assay: Inhibitor activity on EGFR phosphorylation (pEGFR AlphaLISA, 2 h), Ba/F3 EGFR exon 20 ASV Ins; conditions: EGFR phosphorylation, AlphaLISA, 2 hours; read-out: ASV IC50 (pEGFR)
Excerpt: Example B. Inhibitor Activity on EGFR phosphorylation (pEGFR)
EGFR mutant Ba/F3 cells were generated by transduction with retrovirus containing vectors expressing EGFR L858R, EGFR exon 19del, EGFR L858R/C797S, EGFR exon 20 NPG Ins D770_N771, EGFR exon 20 ASV Ins V769_D770, or EGFR exon 20 SVD Ins D770_N771 genes along with a puromycin selection marker. Transduced cells are selected with puromycin for 7 days and are then be transferred into culture media without Interleukin 3 (IL3). Surviving cells are confirmed to express EGFR by Western blot and maintained as a pool. CUTO14 cells were obtained from Dr. Robert C. Doebele at the University of Colorado. The IC50 date are included in Table 6 and Table 7.
1.1 Cells are harvested from flask into cell culture medium and the cell number counted.
1.2 Cells are diluted with culture medium to the desired density and 40 μL of cell suspension is added into each well of 384-well cell culture plate and the seeding density is 50K cells/well (Ba/F3) or 12.5K cells/well (CUTO14).
2 Compound Preparation and Treatment
2.1 Test compounds are dissolved to 10 mM in a DMSO stock solution. 45 μL of stock solution is transferred to a 384 polypropylene plate (pp-plate). Perform 3-fold, 10-point dilution via transferring 15 μL compound into 30 μL DMSO using a TECAN (EVO200) liquid handler.
2.2 Spin plates at room temperature at 1,000 RPM for 1 minute.
2.3 Transfer 5 nL of diluted compound from compound source plate into the cell plate.
2.4 After compound treatment for 2 hours, perform pEGFR detection by AlphaLISA for compound treatment plates as described in “Detection” section.
3 Detection by pEGFR AlphaLISA (Perkin-Elmer)
3.1 Plates are removed from incubators and equilibrated at room temperature for 10 minutes, and media was removed
3.2 10 μL of lysis buffer is added and plates shaken at 600 rpm for 1 hr.
3.3 Prepare acceptor mix just before use and dispense 5 μL of acceptor mix to all the wells. Shake 350 rpm for Ihr in the dark
3.4 Prepare donor mix under low light conditions prior to use. Dispense 5 μL of donor mix to all the wells. Mix well on the shaker, seal and wrap in aluminum foil and incubate 1.5 hrs at room temperature in the dark
3.5 Transfer 18.5 μL mixture to OptiPlate 384, and read using an Envision. The IC50 date were included in Table 6 and Table 7.

[5] = biological target: T4, EGFR exon 20 SVD Ins D770_N771 (Ba/F3 cells) (Homo sapiens, UniProt P00533, INS770SVD); assay: Inhibitor activity on EGFR-dependent cell growth (CellTiter-Glo, 72 h), Ba/F3 EGFR exon 20 SVD Ins; conditions: read-out: BaF3 SVD IC50
T4 construct: expressed in transfected cells; host or cells: Ba/F3 (murine pro-B cells), retroviral transduction, puromycin selection, IL3-independent pool
Procedure, shortened: as §1

T4 sequence (P00533 with tags, fused parts or gaps INS770SVD): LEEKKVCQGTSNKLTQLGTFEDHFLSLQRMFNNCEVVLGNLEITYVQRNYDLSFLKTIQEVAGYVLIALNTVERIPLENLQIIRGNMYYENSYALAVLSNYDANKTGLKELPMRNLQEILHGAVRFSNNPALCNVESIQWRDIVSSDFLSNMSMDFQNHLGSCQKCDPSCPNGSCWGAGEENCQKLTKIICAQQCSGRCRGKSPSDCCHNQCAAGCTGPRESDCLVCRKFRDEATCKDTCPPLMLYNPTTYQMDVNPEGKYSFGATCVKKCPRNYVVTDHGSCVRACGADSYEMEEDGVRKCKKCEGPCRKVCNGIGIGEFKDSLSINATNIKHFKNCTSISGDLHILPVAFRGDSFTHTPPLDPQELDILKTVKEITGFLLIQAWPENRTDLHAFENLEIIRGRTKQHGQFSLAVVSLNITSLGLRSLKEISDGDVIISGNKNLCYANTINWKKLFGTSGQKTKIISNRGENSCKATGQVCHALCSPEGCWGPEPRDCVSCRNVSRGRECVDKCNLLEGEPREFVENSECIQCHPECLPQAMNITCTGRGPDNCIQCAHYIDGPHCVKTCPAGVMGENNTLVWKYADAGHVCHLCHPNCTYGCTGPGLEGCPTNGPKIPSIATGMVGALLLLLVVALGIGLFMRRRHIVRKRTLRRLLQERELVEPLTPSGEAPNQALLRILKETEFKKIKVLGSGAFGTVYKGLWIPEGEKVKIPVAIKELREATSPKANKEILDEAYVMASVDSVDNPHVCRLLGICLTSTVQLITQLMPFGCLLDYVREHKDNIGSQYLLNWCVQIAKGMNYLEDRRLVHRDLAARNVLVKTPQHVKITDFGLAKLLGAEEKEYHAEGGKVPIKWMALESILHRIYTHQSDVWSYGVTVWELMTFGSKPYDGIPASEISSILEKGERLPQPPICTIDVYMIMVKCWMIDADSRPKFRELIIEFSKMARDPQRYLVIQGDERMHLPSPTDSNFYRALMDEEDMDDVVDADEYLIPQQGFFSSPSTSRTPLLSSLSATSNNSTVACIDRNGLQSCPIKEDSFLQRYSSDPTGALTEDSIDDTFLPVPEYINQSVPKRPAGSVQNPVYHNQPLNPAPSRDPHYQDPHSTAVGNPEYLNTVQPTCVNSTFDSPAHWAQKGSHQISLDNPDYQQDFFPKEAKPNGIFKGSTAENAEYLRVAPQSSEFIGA
T3 sequence (P00533 with tags, fused parts or gaps INS769ASV): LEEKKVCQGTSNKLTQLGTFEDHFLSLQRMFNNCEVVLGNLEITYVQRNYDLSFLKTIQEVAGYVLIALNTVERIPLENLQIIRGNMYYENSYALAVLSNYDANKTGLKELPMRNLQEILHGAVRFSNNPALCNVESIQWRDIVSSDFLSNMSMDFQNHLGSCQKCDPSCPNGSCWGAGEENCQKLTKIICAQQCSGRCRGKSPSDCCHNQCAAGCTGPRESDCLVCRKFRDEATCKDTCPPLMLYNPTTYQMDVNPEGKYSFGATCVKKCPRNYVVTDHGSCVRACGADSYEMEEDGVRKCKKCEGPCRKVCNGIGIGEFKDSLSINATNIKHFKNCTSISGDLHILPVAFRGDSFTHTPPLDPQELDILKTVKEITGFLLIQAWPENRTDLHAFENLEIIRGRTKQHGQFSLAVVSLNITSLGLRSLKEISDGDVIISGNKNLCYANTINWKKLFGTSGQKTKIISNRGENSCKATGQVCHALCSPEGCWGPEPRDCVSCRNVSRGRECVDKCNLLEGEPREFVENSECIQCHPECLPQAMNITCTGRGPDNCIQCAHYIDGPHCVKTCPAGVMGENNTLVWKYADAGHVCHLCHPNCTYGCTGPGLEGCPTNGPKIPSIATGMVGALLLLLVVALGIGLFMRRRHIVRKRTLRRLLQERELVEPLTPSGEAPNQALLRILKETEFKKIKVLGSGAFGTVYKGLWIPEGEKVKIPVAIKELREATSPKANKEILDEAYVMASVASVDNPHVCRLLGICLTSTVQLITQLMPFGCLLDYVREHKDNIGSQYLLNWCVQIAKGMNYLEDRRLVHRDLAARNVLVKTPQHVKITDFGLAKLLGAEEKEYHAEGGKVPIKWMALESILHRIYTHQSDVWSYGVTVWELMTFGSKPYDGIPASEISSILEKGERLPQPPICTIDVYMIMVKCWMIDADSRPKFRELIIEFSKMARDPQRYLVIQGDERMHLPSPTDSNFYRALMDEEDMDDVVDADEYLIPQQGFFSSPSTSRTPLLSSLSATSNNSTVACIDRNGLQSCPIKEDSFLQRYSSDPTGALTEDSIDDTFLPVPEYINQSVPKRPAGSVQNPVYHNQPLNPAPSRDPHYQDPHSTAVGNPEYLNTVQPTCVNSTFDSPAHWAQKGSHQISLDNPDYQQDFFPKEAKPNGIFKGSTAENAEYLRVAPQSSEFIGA
T2 sequence (P00533 25-1210): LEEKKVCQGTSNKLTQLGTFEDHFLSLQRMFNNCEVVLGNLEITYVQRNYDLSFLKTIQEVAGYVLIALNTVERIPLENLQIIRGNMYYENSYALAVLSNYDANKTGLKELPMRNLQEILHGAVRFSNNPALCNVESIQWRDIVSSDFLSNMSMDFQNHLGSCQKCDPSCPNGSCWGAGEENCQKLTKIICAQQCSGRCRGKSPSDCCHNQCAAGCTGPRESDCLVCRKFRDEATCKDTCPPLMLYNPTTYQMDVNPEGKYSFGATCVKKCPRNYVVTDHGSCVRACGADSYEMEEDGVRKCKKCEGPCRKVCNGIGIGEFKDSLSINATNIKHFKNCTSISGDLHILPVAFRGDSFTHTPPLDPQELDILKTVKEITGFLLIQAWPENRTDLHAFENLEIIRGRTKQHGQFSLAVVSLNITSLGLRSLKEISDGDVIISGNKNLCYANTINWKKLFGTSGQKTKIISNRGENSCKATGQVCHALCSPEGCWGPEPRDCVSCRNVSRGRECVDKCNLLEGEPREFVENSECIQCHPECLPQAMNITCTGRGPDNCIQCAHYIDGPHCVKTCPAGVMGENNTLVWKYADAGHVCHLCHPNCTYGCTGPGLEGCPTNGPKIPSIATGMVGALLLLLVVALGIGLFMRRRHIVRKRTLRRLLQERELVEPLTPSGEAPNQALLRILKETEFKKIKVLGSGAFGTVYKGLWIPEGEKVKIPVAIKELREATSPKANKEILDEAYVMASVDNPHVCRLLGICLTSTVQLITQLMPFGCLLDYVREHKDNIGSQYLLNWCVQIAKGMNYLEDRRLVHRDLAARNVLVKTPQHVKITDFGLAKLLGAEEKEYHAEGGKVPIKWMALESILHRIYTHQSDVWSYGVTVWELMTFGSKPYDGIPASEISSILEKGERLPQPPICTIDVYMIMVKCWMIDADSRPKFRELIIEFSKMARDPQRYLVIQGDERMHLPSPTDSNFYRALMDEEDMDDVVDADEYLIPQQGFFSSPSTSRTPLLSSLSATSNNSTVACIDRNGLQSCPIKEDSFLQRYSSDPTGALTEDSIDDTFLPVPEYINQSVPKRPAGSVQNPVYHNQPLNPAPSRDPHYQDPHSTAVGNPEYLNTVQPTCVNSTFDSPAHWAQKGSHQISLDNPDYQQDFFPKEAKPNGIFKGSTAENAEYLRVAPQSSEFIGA
T1 sequence (P00533 with tags, fused parts or gaps INS763FQEA): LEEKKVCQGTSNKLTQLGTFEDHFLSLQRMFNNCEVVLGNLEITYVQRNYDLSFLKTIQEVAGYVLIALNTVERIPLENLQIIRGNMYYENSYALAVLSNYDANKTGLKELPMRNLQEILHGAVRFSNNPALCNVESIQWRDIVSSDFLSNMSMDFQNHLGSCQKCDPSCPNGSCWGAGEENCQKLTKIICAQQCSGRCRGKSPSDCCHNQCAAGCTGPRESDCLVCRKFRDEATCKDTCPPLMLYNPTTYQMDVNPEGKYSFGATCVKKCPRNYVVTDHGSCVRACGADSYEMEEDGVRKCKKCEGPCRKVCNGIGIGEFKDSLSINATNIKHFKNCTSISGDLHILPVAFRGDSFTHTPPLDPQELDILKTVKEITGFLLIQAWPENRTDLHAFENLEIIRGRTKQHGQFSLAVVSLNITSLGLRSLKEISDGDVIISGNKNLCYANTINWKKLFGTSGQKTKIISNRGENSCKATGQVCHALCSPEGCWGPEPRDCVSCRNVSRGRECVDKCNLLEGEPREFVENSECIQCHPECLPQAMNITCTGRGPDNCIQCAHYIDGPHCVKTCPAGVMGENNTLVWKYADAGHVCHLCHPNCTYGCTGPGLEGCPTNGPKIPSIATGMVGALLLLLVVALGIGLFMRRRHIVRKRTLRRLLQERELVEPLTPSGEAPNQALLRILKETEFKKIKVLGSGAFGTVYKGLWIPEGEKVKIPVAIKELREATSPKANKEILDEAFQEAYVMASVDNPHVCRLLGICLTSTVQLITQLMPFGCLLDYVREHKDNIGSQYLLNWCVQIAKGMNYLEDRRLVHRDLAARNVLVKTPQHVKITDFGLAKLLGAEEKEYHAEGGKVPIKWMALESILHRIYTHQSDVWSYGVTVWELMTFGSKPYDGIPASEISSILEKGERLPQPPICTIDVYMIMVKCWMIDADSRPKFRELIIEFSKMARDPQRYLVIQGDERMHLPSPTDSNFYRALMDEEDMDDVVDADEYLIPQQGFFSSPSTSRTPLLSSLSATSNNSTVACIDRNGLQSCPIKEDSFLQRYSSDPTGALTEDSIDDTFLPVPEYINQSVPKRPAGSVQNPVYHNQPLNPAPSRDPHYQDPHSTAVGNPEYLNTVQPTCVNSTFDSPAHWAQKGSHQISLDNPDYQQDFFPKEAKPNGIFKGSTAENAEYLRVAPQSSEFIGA

| IC50 [1] | IC50 [2] | IC50 [3] | IC50 [4] | IC50 [5] | SMILES |
| --- | --- | --- | --- | --- | --- |
| > 1000 nM | > 1000 nM | > 1000 nM | 100 to 1000 nM | 100 to 1000 nM | COc1c(Nc2c(-c3ccnc(N)n3)[nH]c3c2C(=O)NCC3)ccc(F)c1F [compound 303] |
| > 1000 nM | > 1000 nM | > 1000 nM | > 1000 nM | > 1000 nM | COc1cc(Cl)cc(Nc2c(-c3ccnc(N)n3)[nH]c3c2C(=O)NCC3)c1 [compound 302] |
| 100 to 1000 nM | > 1000 nM | 100 to 1000 nM | < 100 nM | 100 to 1000 nM | COc1c(F)cc(F)cc1Nc1c(-c2ccnc(N)n2)[nH]c2c1C(=O)NCC2 [compound 304] |
| > 1000 nM | > 1000 nM | > 1000 nM | 100 to 1000 nM | > 1000 nM | Nc1nccc(-c2[nH]c3c(c2Nc2cccc4ccoc24)C(=O)NCC3)n1 [compound 307] |
| > 1000 nM | > 1000 nM | > 1000 nM | 100 to 1000 nM | > 1000 nM | Nc1nccc(-c2[nH]c3c(c2Nc2cccc4scnc24)C(=O)NCC3)n1 [compound 718, 2-(2-aminopyrimidin-4-yl)-3-(1,3-benzothiazol-4-ylamino)-1H,5H,6H,7H-pyrrolo[3,2-c]pyridin-4-one; trifluoroacetic acid] |
| > 1000 nM | > 1000 nM | > 1000 nM | > 1000 nM | > 1000 nM | COc1c(Nc2c(-c3ccnc(N)n3)[nH]c3c2C(=O)NCC3)cccc1C(C)=O [compound 728, 3-[(3-acetyl-2-methoxyphenyl)amino]-2-(2-aminopyrimidin-4-yl)-1H,5H,6H,7H-pyrrolo[3,2-c]pyridin-4-one] |
| > 1000 nM | > 1000 nM | > 1000 nM | 100 to 1000 nM | > 1000 nM | COc1c(F)cccc1Nc1c(-c2ccnc(C)c2)[nH]c2c1C(=O)NCC2 [compound 261] |
| > 1000 nM | > 1000 nM | > 1000 nM | > 1000 nM | > 1000 nM | COc1c(F)cccc1Nc1c(-c2nnc3cc(C)ccn23)[nH]c2c1C(=O)NCC2 [compound 246] |

The remaining lines, values behind:

| SMILES | IC50 [1] | IC50 [2] | IC50 [3] | IC50 [4] | IC50 [5] |
| --- | --- | --- | --- | --- | --- |
| COc1c(Cl)cccc1Nc1c(-c2ccnc(N)n2)[nH]c2c1C(=O)N[C@H](C)C2 [187b] | 100 to 1000 nM | 100 to 1000 nM | < 100 nM | < 100 nM | < 100 nM |
| N#Cc1c(F)cccc1Nc1c(-c2ccnc(N)n2)[nH]c2c1C(=O)NCC2 [compound 200] | > 1000 nM | > 1000 nM | > 1000 nM | 100 to 1000 nM | > 1000 nM |
| C#Cc1cccc(Nc2c(-c3ccnc(N)n3)[nH]c3c2C(=O)NCC3)c1OC [Compound 703, 2-(2-aminopyrimidin-4-yl)-3-[(3-ethynyl-2-methoxyphenyl)amino]-1H,5H,6H,7H-pyrrolo[3,2-c]pyridin-4-one] | > 1000 nM | > 1000 nM | > 1000 nM | 100 to 1000 nM | > 1000 nM |
| Cc1cc(F)ccc1Nc1c(-c2ccnc(N)n2)[nH]c2c1C(=O)NCC2 [compound 197] | > 1000 nM | > 1000 nM | > 1000 nM | > 1000 nM | > 1000 nM |
| COc1c(Cl)cccc1Nc1c(-c2ccnc(N)n2)[nH]c2c1C(=O)N[C@@H](C)C2 [187a] | 100 to 1000 nM | > 1000 nM | 100 to 1000 nM | < 100 nM | 100 to 1000 nM |
| Nc1nccc(-c2[nH]c3c(c2Nc2ccc(F)c(F)c2)C(=O)NCC3)n1 [compound 203] | 100 to 1000 nM | > 1000 nM | > 1000 nM | > 1000 nM | > 1000 nM |
| COc1c(Cl)cccc1Nc1c(-c2ccnc(N)n2)[nH]c2c1C(=O)NC[C@@H]2C [186a] | < 100 nM | 100 to 1000 nM | < 100 nM | < 100 nM | < 100 nM |
| CCOc1c(F)cccc1Nc1c(-c2ccnc(N)n2)[nH]c2c1C(=O)NCC2 [Compound 699, 2-(2-aminopyrimidin-4-yl)-3-[(2-ethoxy-3-fluorophenyl)amino]-1H,5H,6H,7H-pyrrolo[3,2-c]pyridin-4-one; trifluoroacetic acid] | > 1000 nM | > 1000 nM | > 1000 nM | 100 to 1000 nM | > 1000 nM |
| Nc1nccc(-c2[nH]c3c(c2Nc2cc(F)cc(F)c2)C(=O)NCC3)n1 [compound 204] | 100 to 1000 nM | 100 to 1000 nM | 100 to 1000 nM | 100 to 1000 nM | 100 to 1000 nM |
| CC#Cc1cccc(Nc2c(-c3ccnc(N)n3)[nH]c3c2C(=O)NCC3)c1OC [Compound 704, 2-(2-aminopyrimidin-4-yl)-3-[[2-methoxy-3-(prop-1-yn-1-yl)phenyl]amino]-1H,5H,6H,7H-pyrrolo[3,2-c]pyridin-4-one] | > 1000 nM | > 1000 nM | > 1000 nM | > 1000 nM | > 1000 nM |
| COc1c(F)cccc1Nc1c(-c2ccnc(N)c2)[nH]c2c1C(=O)NCC2 [compound 242] | > 1000 nM | > 1000 nM | > 1000 nM | 100 to 1000 nM | > 1000 nM |
| COc1c(Cl)cccc1Nc1c(-c2ccnc(N)n2)[nH]c2c1C(=O)NC[C@H]2C [186b] | 100 to 1000 nM | 100 to 1000 nM | < 100 nM | < 100 nM | < 100 nM |
| COc1c(Cl)cccc1Nc1c(-c2ccnc(NCc3ccccc3)n2)[nH]c2c1C(=O)NCC2 [compound 209] | > 1000 nM | > 1000 nM | 100 to 1000 nM | 100 to 1000 nM | 100 to 1000 nM |
| Cc1c(F)cccc1Nc1c(-c2nc(N)ncc2F)[nH]c2c1C(=O)NCC2 [Compound 689, 2-(2-amino-5-fluoropyrimidin-4-yl)-3-[(3-fluoro-2-methylphenyl)amino]-1H,5H,6H,7H-pyrrolo[3,2-c]pyridin-4-one] | 100 to 1000 nM | – | > 1000 nM | 100 to 1000 nM | > 1000 nM |
| CSc1c(Cl)cccc1Nc1c(-c2ccnc(N)n2)[nH]c2c1C(=O)NCC2 [Compound 715, 2-(2-aminopyrimidin-4-yl)-3-[[3-chloro-2-(methylsulfanyl)phenyl]amino]-1H,5H,6H,7H-pyrrolo[3,2-c]pyridin-4-one] | 100 to 1000 nM | > 1000 nM | 100 to 1000 nM | < 100 nM | 100 to 1000 nM |
| Nc1nccc(-c2[nH]c3c(c2Nc2ccccc2Cl)C(=O)NCC3)n1 [compound 194] | 100 to 1000 nM | 100 to 1000 nM | – | < 100 nM | – |
| Nc1nccc(-c2[nH]c3c(c2Nc2ccc(Cl)cc2)C(=O)NCC3)n1 [compound 192] | > 1000 nM | > 1000 nM | – | > 1000 nM | – |
| Nc1nccc(-c2[nH]c3c(c2Nc2cccc(Cl)c2)C(=O)NCC3)n1 [compound 193] | 100 to 1000 nM | 100 to 1000 nM | – | < 100 nM | – |
